The record followed here is PubChem BioAssay (NCI).

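Five concentrations, 48 hours, 96-well plates. Abbreviation: GI50, concentration required for 50% inhibition of growth. Definition used: TGI = concentration required for complete inhibition of growth.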 A value given as a limit tells only on which side of the number the result lay.

Test systems include A549 NSCLC; BT-549 breast; HL-60(TB) leukemia; K-562 leukemia; MCF7 breast; MOLT-4 leukemia; NCI-H23 lung; NCI/ADR-RES ovarian; RXF 393 renal; SF-295 CNS.
What all share (experiment): inhibition of tumour cell growth, NCI panel, 48 h

`C=CCOc1c(Br)cc(Br)cc1Br`: the GI50 is 45.8 µM in the assay with A549 NSCLC; 35.5 µM with BT-549 breast; 32.1 µM in the assay with HL-60(TB) leukemia; 7.92 µM with K-562 leukemia; 9.32 µM with MCF7 breast; 14.7 µM with MOLT-4 leukemia. For the same compound, the GI50 in the assay on NCI-H23 lung is 10.1 µM; in the assay with NCI/ADR-RES ovarian it was 17.3 µM; in the assay on RXF 393 renal, 19.3 µM; in the assay on SF-295 CNS, 2.71 µM. Besides, the TGI in the assay with A549 NSCLC is more than 100 µM; in the assay with BT-549 breast it was more than 100 µM; in the assay with HL-60(TB) leukemia it was 89.3 µM; in the assay on K-562 leukemia, more than 100 µM; in the assay with MCF7 breast, more than 100 µM; in the assay with MOLT-4 leukemia it was 99.1 µM. Further, the TGI in the assay with NCI-H23 lung was more than 100 µM; with NCI/ADR-RES ovarian, more than 100 µM; with RXF 393 renal, more than 100 µM; in the assay with SF-295 CNS, 9.53 µM.
Take `Clc1ccc(OCc2nnc3n2N=C(c2ccc(Cl)cc2Cl)CS3)c(Cl)c1`: the GI50 is 28.8 µM with A549 NSCLC; 22.4 µM with BT-549 breast; 35.6 µM in the assay on HL-60(TB) leukemia; 33.4 µM with K-562 leukemia; 22.5 µM in the assay with MCF7 breast; 22.8 µM in the assay on MOLT-4 leukemia. Moreover, the GI50 in the assay on NCI-H23 lung was 22.5 µM; in the assay on NCI/ADR-RES ovarian it was 27 µM; with RXF 393 renal it was 4.08 µM; in the assay with SF-295 CNS, 23.9 µM. Further, the TGI is 95.8 µM in the assay with A549 NSCLC; 59.4 µM with BT-549 breast; more than 100 µM in the assay with HL-60(TB) leukemia; more than 100 µM in the assay on K-562 leukemia; 92.8 µM with MCF7 breast; more than 100 µM in the assay with MOLT-4 leukemia. Also, the TGI is 55.4 µM in the assay with NCI-H23 lung, 91.6 µM with NCI/ADR-RES ovarian, 25.4 µM with RXF 393 renal and 79.7 µM in the assay on SF-295 CNS.
For `CCN(CCO)CCNc1ccc(C)c2sc3cc(Cl)ccc3c(=O)c12`, the GI50 with A549 NSCLC was 1.73 µM; in the assay on BT-549 breast, 3.78 µM; in the assay on HL-60(TB) leukemia, 1.56 µM; in the assay with K-562 leukemia, 0.32 µM; in the assay with MCF7 breast, 1.21 µM; in the assay on MOLT-4 leukemia, 1.27 µM. The GI50 with NCI-H23 lung was 1.63 µM; in the assay on NCI/ADR-RES ovarian it was 1.49 µM; in the assay with RXF 393 renal it was 0.738 µM; in the assay with SF-295 CNS, 1.61 µM. Moreover, the TGI was found to be 3.28 µM with A549 NSCLC; 14 µM in the assay on BT-549 breast; 3.55 µM with HL-60(TB) leukemia; 1.42 µM in the assay with K-562 leukemia; 2.78 µM in the assay with MCF7 breast; 3.01 µM in the assay on MOLT-4 leukemia. The TGI in the assay with NCI-H23 lung came to 3.45 µM; with NCI/ADR-RES ovarian, 3.11 µM; in the assay with RXF 393 renal it was 2.2 µM; with SF-295 CNS it was 3.19 µM.
On to `CC(C)(C)c1nc2c(o1)C(=Nc1ccc(F)cc1)c1ccccc1C2=O`, for which the TGI in the assay with A549 NSCLC was 22.7 µM; with BT-549 breast it was 12.9 µM; with HL-60(TB) leukemia it was more than 44.9 µM; in the assay with K-562 leukemia it was more than 100 µM; in the assay on MCF7 breast, 29.1 µM; in the assay on MOLT-4 leukemia, more than 100 µM. For the same compound, the TGI in the assay with NCI-H23 lung was 8.98 µM; in the assay on NCI/ADR-RES ovarian, more than 56.7 µM; in the assay with RXF 393 renal it was 37.9 µM; in the assay with SF-295 CNS, 19.6 µM.
With `NCCN1CCN(c2nccc(-c3ccc4ccccc4c3)n2)CC1`, the GI50 in the assay with A549 NSCLC was 1.86 µM; in the assay on BT-549 breast it was 4.89 µM; with HL-60(TB) leukemia, 2.23 µM; in the assay on K-562 leukemia, 2.09 µM; with MCF7 breast, 1.67 µM; in the assay on MOLT-4 leukemia, 2.05 µM. In addition, the GI50 in the assay with NCI-H23 lung is 4.17 µM; in the assay with NCI/ADR-RES ovarian, 2.48 µM; with RXF 393 renal, 1.46 µM; in the assay on SF-295 CNS, 1.68 µM. For the same compound, the TGI worked out at 3.43 µM with A549 NSCLC; 18.2 µM in the assay on BT-549 breast; 5.76 µM in the assay with HL-60(TB) leukemia; 4.09 µM with K-562 leukemia; 3.52 µM in the assay on MCF7 breast; 4.44 µM in the assay on MOLT-4 leukemia. In addition, the TGI in the assay on NCI-H23 lung was 16.5 µM; in the assay with NCI/ADR-RES ovarian, 6.71 µM; in the assay on RXF 393 renal it was 3.07 µM; in the assay with SF-295 CNS it was 3.34 µM.
Regarding `Cc1ncc(NC(=O)c2ccc(CN3CCN(C)CC3)c(C(F)(F)F)c2)cc1Nc1nccc(-c2cccnc2)n1`, the GI50 with A549 NSCLC was 16.4 µM; in the assay with BT-549 breast, 18.1 µM; in the assay on HL-60(TB) leukemia it was 8.57 µM; in the assay on MCF7 breast it was 13.8 µM; in the assay on MOLT-4 leukemia, 14.9 µM; in the assay with NCI-H23 lung, 14.2 µM. The figures for the GI50 in the assay on NCI/ADR-RES ovarian, in the assay with RXF 393 renal and with SF-295 CNS were 17.8 µM, 11.1 µM and 16.2 µM, respectively. The TGI with A549 NSCLC was 31.5 µM; with BT-549 breast it was 32.7 µM; in the assay with HL-60(TB) leukemia, 32.3 µM; in the assay with K-562 leukemia, more than 100 µM; in the assay on MCF7 breast, 28.7 µM; in the assay with MOLT-4 leukemia, 49.6 µM. Further, the TGI in the assay with NCI-H23 lung was 28.3 µM; in the assay on NCI/ADR-RES ovarian it was 34.8 µM; in the assay on RXF 393 renal it was 23.8 µM; with SF-295 CNS, 30 µM.
In the case of `Oc1c(Br)cc(CN(Cc2cc(Br)c(O)c(Br)c2)C2CCCCC2)cc1Br`, the TGI in the assay with A549 NSCLC, with BT-549 breast, with HL-60(TB) leukemia, in the assay with K-562 leukemia, in the assay with MCF7 breast and in the assay on MOLT-4 leukemia was more than 100 µM throughout. Moreover, the TGI in the assay with NCI-H23 lung, in the assay on NCI/ADR-RES ovarian, in the assay with RXF 393 renal and in the assay with SF-295 CNS was more than 100 µM each time.
For the compound `Cc1c(C(=O)NN)nnn1-c1ccnc2c(C(F)(F)F)cccc12`, the GI50 in the assay on A549 NSCLC, in the assay on BT-549 breast, in the assay on HL-60(TB) leukemia, with K-562 leukemia, in the assay with MCF7 breast and in the assay with MOLT-4 leukemia was more than 100 µM each time. For the same compound, the GI50 with NCI-H23 lung, with NCI/ADR-RES ovarian, in the assay on RXF 393 renal and in the assay on SF-295 CNS was more than 100 µM in each case. Moreover, the TGI in the assay on A549 NSCLC, with BT-549 breast, with HL-60(TB) leukemia, in the assay with K-562 leukemia, in the assay with MCF7 breast and in the assay with MOLT-4 leukemia was more than 100 µM each time. The TGI in the assay with NCI-H23 lung, in the assay on NCI/ADR-RES ovarian, with RXF 393 renal and in the assay on SF-295 CNS was more than 100 µM throughout.
